# Source: ChEMBL document CHEMBL6182935, “Discovery of a Novel Silybin Derivative for the Treatment of Metabolic Dysfunction-Associated Steatohepatitis” (J Med Chem, 2025)
# The source made the active and inactive calls. No cut-off for these calls is given here.
# Assays:
# Mus musculus [1] = assay: Anti-MASH activity in HFD-fed CCl4-treated male C57BL/6 mouse assessed as reduction in liver IL-6 level at 150 mg/kg, po qd treated for 4 weeks by ELISA; format: functional, organism-based
# Rattus norvegicus [2] = assay: Hepatoprotective activity in male Sprague-Dawley rat model of CCl4-induced ALI assessed as reduction in MDA level at 100 mg/kg, IG qd pretreated with compound for 7 days followed by CCl4 administration after 2 hrs post-compound treatment measured after 16 hrs post-CCl4 injection; format: functional, organism-based; settings: time 186.0 hrs
# Rattus norvegicus [3] = assay: Hepatoprotective activity in male Sprague-Dawley rat model of CCl4-induced ALI assessed as restoration of serum LDH level at 100 mg/kg, IG qd pretreated with compound for 7 days followed by CCl4 administration after 2 hrs post-compound treatment measured after 16 hrs post-CCl4 injection; format: functional, organism-based; settings: time 186.0 hrs
# Hepatocyte [4] = assay: Anti-inflammatory activity in CCl4-stimulated mouse primary hepatocytes assessed as reduction in IL-6 mRNA level at 1 uM; format: functional, cell-based
# L02 [5] = assay: Anti-MASH activity in palmitate/oleate-stimulated human LO2 cells assessed as reduction in FASN mRNA level at 10 to 40 uM incubated for 24 hrs by q-PCR analysis; format: functional, cell-based; settings: dose 10-40 µM
# L02 [6] = assay: Anti-MASH activity in palmitate/oleate-stimulated human LO2 cells assessed as reduction in triglyceride level incubated for 24 hrs; format: functional, cell-based; settings: dose 10-40 µM
# Mus musculus [7] = assay: Anti-MASH activity in HFD-fed CCl4-treated male C57BL/6 mouse assessed as reduction in hepatic cholesterol level at 150 mg/kg, po qd treated for 4 weeks by ELISA; format: functional, organism-based
# [8] = Inhibition of lipid peroxidation in egg yolk (unknown origin) preheated with compound and FeSO4 for 15 mins followed by TCA/TBA addition measured after 15 mins by absorbance based assay; format: functional, tissue-based
# Rattus norvegicus [9] = assay: Hepatoprotective activity in male Sprague-Dawley rat model of CCl4-induced ALI assessed as reduction in yellowing of liver at 100 mg/kg, IG qd pretreated with compound for 7 days followed by CCl4 administration after 2 hrs post-compound treatment measured after 16 hrs post-CCl4 injection; format: functional, organism-based; settings: time 186.0 hrs
# Rattus norvegicus [10] = assay: Hepatoprotective activity in male Sprague-Dawley rat model of CCl4-induced ALI assessed as reduction in dullness of liver margin at 100 mg/kg, IG qd pretreated with compound for 7 days followed by CCl4 administration after 2 hrs post-compound treatment measured after 16 hrs post-CCl4 injection; format: functional, organism-based; settings: time 186.0 hrs
# Mus musculus [11] = assay: Anti-MASH activity in HFD-fed CCl4-treated male C57BL/6 mouse assessed as reduction in serum triglyceride level at 150 mg/kg, po qd treated for 4 weeks; format: functional, organism-based
# [12] = Antioxidant activity assessed as clearing rate incubated for 30 mins under dark condition by DPPH free radical scavenging assay; format: functional
# Mus musculus [13] = assay: Anti-MASH activity in HFD-fed CCl4-treated male C57BL/6 mouse assessed as reduction in alpha-SMA in liver at 150 mg/kg, po qd treated for 4 weeks by IHC analysis; format: functional, organism-based
# [14] = Solubility in methanol incubated for 10 mins; format: physicochemical
# [15] = Solubility in ethyl acetate incubated for 10 mins; format: physicochemical
# Mus musculus [16] = assay: Anti-MASH activity in HFD-fed CCl4-treated male C57BL/6 mouse assessed as decrease in liver MDA level at 150 mg/kg, po qd treated for 4 weeks; format: functional, organism-based
# Rattus norvegicus [17] = assay: Hepatoprotective activity in male Sprague-Dawley rat model of CCl4-induced ALI assessed as reduction in roughened surface in liver at 100 mg/kg, IG qd pretreated with compound for 7 days followed by CCl4 administration after 2 hrs post-compound treatment measured after 16 hrs post-CCl4 injection; format: functional, organism-based; settings: time 186.0 hrs
# Mus musculus [18] = assay: Anti-MASH activity in HFD-fed CCl4-treated male C57BL/6 mouse assessed as reduction in inflammation in liver at 150 mg/kg, po qd treated for 4 weeks by H and E/Oil red O staining based analysis; format: functional, organism-based
# L02 [19] = assay: Anti-inflammatory activity in CCl4-stimulated human LO2 cells assessed as reduction in IL-6 mRNA level at 1 uM; format: functional, cell-based
# L02 [20] = assay: Anti-MASH activity in palmitate/oleate-stimulated human LO2 cells assessed as reduction in SCD mRNA level at 10 to 40 uM incubated for 24 hrs by q-PCR analysis; format: functional, cell-based; settings: dose 10-40 µM
# Mus musculus [21] = assay: Anti-MASH activity in HFD-fed CCl4-treated male C57BL/6 mouse assessed as restoration of liver SOD level at 150 mg/kg, po qd treated for 4 weeks; format: functional, organism-based
# [22] = Apparent volume of distribution during terminal phase in overnight-fasted male Sprague-Dawley rat at 150 mg/kg, po measured up to 12 hrs by HPLC analysis; format: ADME, organism-based; settings: in vivo, read-out: Vz/F
# [23] = MRT (0 to infinity) in overnight-fasted male Sprague-Dawley rat at 150 mg/kg, po measured up to 12 hrs by HPLC analysis; format: ADME, organism-based; settings: in vivo
# Hepatocyte [24] = assay: Anti-MASH activity in palmitate/oleate-stimulated mouse primary hepatocytes assessed as reduction in ACACA mRNA level by q-PCR analysis; format: functional, cell-based
# Hepatocyte [25] = assay: Anti-MASH activity in palmitate/oleate-stimulated mouse primary hepatocytes assessed as reduction in lipid accumulation by Oil Red O staining assay; format: functional, cell-based
# L02 [26] = assay: Anti-MASH activity in CCl4-stimulated human LO2 cells assessed as reduction in ROS level incubated for 24 hrs by DCFH-DA staining assay; format: functional, cell-based; settings: dose 2.5-10 µM
# Mus musculus [27] = assay: Anti-MASH activity in HFD-fed CCl4-treated male C57BL/6 mouse assessed as restoration of liver GSH-Px level at 150 mg/kg, po qd treated for 4 weeks; format: functional, organism-based
# Rattus norvegicus [28] = assay: Hepatoprotective activity in male Sprague-Dawley rat model of CCl4-induced ALI assessed as reduction in […] somatic indices at 100 mg/kg, IG qd pretreated with compound for 7 days followed by CCl4 administration after 2 hrs post-compound treatment measured after 16 hrs post-CCl4 injection; format: functional, organism-based; settings: time 186.0 hrs
# Mus musculus [29] = assay: Anti-MASH activity in HFD-fed CCl4-treated male C57BL/6 mouse assessed as reduction in serum LDL cholesterol level at 150 mg/kg, po qd treated for 4 weeks; format: functional, organism-based
# [30] = Toxicity in male Sprague-Dawley rat model of CCl4-induced ALI assessed as animal growth at 100 mg/kg, IG qd pretreated with compound for 7 days followed by CCl4 administration after 2 hrs post-compound treatment measured after 16 hrs post-CCl4 injection; format: organism-based; settings: in vivo, po, 186 h
# Rattus norvegicus [31] = assay: Hepatoprotective activity in male Sprague-Dawley rat model of CCl4-induced ALI assessed as restoration of serum AST level at 100 mg/kg, IG qd pretreated with compound for 7 days followed by CCl4 administration after 2 hrs post-compound treatment measured after 16 hrs post-CCl4 injection; format: functional, organism-based; settings: time 186.0 hrs
# Rattus norvegicus [32] = assay: Hepatoprotective activity in male Sprague-Dawley rat model of CCl4-induced ALI assessed as restoration of SOD level at 100 mg/kg, IG qd pretreated with compound for 7 days followed by CCl4 administration after 2 hrs post-compound treatment measured after 16 hrs post-CCl4 injection; format: functional, organism-based; settings: time 186.0 hrs
smiles,measurement,setting,value
COc1cc([C@@H]2Oc3cc([C@H]4Oc5cc(O)cc(O)c5C(=O)[C@@H]4O)ccc3OC2CS)ccc1O (some centres not stated),Activity,Mus musculus [1],Active
same,Activity,Rattus norvegicus [2],Active; Exhibited Better Efficacy Than Silybin
same,Activity,Rattus norvegicus [3],Active
same,Activity,Hepatocyte [4],Active
same,Activity,L02 [5],Active
same,Activity,L02 [6],Dose-dependent-effect
same,Activity,Mus musculus [7],Active; Activity Was More Significant Than Silybin
same,IC50,[8],41.7 µM
same,Activity,Rattus norvegicus [9],Active
same,Activity,Rattus norvegicus [10],Active
same,Activity,Mus musculus [11],Active
same,Activity,[12],92.9%
same,Activity,Mus musculus [13],Active
same,solubility,[14],913 mg/mL
same,solubility,[15],> 1000 mg/mL
same,Activity,Mus musculus [16],Active; Compound Was More Significant Than Silybin
same,Activity,Rattus norvegicus [17],Active
same,Activity,Mus musculus [18],Active; Activity Was Better Than Silybin
same,Activity,L02 [19],Active
same,Activity,L02 [20],Active
same,Activity,Mus musculus [21],Active
same,Vd/F,[22],6.91 L
same,MRT inf,[23],3.51 h
same,Activity,Hepatocyte [24],Active
same,Activity,Hepatocyte [25],Active
same,Activity,L02 [26],Active
same,Activity,Mus musculus [27],Active
same,Activity,Rattus norvegicus [28],Active
same,Activity,Mus musculus [29],Active
same,Activity,[30],Non-toxic
same,Activity,Rattus norvegicus [31],Active
same,Activity,Rattus norvegicus [32],Active; Exhibited Better Efficacy Than Silybin
